Tested on: Ctenocephalides felis fleas
Test: Flea efficacy on dogs approximately 6 months after treatment (Example 4B)
Type: in vivo
Method: The results from additional dose characterization studies are summarized. These studies evaluated three doses (10, 15 and 20 mg/kg) in adult dogs. The injectable suspension formulations of fluralaner were prepared is indicated in Example 1J above. One study tested the effectiveness against Rhipicephalus sanguineus ticks (see Table 7). A second study evaluated efficacy against fleas at approximately 6 months after treatment was tested in dogs (see Table 8).

With `Cc1cc(C2=NOC(c3cc(Cl)cc(Cl)c3)(C(F)(F)F)C2)ccc1C(=O)NCC(=O)NCC(F)(F)F` (centres unmarked) [fluralaner, 4-[5-(3,5-Dichlorophenyl)-5-trifluoromethyl-4,5-dihydroisoxazol-3-yl]-2-methyl-N-[(2,2,2-trifluoro-ethylcarbamoyl)-methyl]-benzamide] the “Effectiveness in reducing live fleas on dogs” value (all three doses (10, 15, 20 mg/kg), 6 months following treatment) was 100% and the “Predicted duration of efficacy against fleas” value (predicted because fleas are more sensitive to fluralaner than ticks) was 12 months.
